The source of these data is article PMC6101970 (Oncogene, 2018).

Broadly, the IC50 is the midpoint of a concentration-inhibition curve. Higher therefore signals weaker potency.

The experiment deals with ATR/ATRIP (human) (Homo sapiens, UniProt Q13535). Nature of the experiment: HTRF kinase assay, GST-cMyc-p53 Ser15 phosphorylation. The format is biochemical.
ATR/ATRIP (human), sequence (Q13535 whole entry): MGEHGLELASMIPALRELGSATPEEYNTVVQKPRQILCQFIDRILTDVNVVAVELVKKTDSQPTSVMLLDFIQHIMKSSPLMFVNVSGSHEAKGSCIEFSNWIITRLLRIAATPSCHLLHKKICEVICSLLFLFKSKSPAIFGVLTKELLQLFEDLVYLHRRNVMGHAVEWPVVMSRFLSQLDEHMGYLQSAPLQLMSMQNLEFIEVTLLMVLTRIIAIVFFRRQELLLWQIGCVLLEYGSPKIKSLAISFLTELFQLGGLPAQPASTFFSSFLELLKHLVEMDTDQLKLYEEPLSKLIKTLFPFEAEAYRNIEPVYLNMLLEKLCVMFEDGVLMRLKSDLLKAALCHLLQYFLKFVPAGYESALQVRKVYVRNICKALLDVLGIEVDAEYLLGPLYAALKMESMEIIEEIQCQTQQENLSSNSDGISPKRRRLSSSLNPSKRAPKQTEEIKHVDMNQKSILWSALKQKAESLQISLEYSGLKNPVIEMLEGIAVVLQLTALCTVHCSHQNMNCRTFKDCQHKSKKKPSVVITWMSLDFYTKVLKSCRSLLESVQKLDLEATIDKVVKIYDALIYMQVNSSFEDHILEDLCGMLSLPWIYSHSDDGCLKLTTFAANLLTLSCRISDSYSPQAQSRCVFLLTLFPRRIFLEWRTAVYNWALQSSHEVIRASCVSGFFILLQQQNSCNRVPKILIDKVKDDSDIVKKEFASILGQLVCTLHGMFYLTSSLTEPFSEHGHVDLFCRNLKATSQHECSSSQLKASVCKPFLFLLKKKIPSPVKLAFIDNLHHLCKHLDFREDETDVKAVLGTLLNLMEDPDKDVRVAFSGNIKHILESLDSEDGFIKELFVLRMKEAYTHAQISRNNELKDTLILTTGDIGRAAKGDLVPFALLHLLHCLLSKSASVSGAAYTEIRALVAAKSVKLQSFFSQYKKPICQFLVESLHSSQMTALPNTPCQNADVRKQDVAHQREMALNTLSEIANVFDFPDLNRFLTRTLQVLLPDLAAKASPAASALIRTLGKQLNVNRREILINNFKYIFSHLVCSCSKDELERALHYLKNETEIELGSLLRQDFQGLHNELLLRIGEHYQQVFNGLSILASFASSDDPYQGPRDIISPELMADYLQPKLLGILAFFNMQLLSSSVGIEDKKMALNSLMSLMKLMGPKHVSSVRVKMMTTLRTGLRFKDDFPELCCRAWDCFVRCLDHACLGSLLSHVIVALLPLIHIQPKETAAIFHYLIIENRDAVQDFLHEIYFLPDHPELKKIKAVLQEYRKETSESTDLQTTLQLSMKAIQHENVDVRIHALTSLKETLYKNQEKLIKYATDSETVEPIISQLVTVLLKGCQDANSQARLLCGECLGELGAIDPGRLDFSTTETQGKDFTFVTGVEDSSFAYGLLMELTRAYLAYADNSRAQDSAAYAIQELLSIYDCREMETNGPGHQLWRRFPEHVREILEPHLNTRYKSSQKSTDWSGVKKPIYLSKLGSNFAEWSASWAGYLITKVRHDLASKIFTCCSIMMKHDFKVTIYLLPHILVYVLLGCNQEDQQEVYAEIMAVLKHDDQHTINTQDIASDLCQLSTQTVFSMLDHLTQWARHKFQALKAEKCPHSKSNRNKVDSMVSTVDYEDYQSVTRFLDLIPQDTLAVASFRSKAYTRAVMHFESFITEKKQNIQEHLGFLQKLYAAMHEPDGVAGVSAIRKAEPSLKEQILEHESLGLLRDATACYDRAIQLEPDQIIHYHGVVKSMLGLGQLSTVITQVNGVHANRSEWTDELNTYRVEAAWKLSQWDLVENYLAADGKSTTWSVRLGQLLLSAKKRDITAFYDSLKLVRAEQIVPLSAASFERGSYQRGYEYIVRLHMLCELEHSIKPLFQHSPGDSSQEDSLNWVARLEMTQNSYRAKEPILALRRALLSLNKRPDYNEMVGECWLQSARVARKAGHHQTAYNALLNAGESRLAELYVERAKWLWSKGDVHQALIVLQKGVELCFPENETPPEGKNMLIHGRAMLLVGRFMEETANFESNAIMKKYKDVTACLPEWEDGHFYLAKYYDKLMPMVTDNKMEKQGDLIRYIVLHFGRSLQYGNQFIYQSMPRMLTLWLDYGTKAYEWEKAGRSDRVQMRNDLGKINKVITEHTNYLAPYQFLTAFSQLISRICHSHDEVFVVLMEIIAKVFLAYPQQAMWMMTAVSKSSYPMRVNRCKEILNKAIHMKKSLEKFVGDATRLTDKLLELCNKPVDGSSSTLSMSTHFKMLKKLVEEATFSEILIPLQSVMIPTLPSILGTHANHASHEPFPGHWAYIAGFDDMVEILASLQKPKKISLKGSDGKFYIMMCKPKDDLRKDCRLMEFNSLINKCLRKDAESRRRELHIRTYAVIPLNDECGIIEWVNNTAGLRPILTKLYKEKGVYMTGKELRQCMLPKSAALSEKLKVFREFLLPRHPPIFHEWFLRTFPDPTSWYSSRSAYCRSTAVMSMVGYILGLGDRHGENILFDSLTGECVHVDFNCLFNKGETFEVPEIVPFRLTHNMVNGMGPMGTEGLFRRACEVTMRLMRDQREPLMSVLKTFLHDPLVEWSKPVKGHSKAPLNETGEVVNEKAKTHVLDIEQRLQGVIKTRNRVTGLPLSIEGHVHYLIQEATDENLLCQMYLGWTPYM
ATR/ATRIP (human), sequence (Q8WXE1 whole entry partner): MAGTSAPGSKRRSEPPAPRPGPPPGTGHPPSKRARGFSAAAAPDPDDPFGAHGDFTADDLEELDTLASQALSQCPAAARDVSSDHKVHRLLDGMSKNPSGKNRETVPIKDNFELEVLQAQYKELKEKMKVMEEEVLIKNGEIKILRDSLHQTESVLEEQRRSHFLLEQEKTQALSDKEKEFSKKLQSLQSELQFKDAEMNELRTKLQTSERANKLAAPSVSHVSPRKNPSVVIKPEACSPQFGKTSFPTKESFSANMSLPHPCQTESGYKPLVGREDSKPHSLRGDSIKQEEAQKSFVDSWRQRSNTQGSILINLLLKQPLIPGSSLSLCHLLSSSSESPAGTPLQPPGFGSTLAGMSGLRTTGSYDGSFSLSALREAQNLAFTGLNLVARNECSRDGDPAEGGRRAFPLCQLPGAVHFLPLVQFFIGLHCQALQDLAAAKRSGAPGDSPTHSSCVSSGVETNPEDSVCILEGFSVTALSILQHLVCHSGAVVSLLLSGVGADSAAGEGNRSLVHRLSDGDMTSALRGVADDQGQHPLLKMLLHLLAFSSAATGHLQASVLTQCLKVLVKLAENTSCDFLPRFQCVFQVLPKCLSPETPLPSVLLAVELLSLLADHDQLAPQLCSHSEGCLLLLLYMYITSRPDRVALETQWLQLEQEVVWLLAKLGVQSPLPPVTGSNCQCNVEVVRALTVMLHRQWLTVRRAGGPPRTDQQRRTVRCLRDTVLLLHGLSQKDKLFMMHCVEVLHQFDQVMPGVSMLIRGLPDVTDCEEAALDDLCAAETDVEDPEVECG

`COc1nnc2ccc(N3CCC(c4ccc(OCCN5CCN(C)C(=O)[C@H]5C)cc4)CC3)nn12` [AZD5153] showed an IC50 greater than 10 µM.

The compound `Cc1sc2c(c1C)C(c1ccc(Cl)cc1)=N[C@@H](CC(=O)OC(C)(C)C)c1nnc(C)n1-2` [JQ1] gave an IC50 greater than 10 µM.
